Assay results from US8080547B2, “Triazolopyridine carboxamide derivatives and triazolopyrimidine carboxamide derivatives, preparation thereof and therapeutic use thereof” (Sanofi-Aventis, priority 2007, dated 2011).

Experiments:
[1] = target: T1, FAAH (Fatty Acid Amide Hydrolase) enzyme (Mus musculus, UniProt O08914); test: radioenzymatic assay of [3H]anandamide hydrolysis by FAAH; format: biochemical; details: mouse brain homogenate; 20 min preincubation; 10 μM anandamide; read-out: IC50 (concentration which inhibits 50% of the control enzyme activity of FAAH)
T1 construct: the source of FAAH enzyme is a mouse brain homogenate from which the cerebellum and the medulla oblongata have been removed; from tissue; host or cells: mouse brain homogenate (cerebellum and medulla oblongata removed)
T1 sequence (O08914 1-579): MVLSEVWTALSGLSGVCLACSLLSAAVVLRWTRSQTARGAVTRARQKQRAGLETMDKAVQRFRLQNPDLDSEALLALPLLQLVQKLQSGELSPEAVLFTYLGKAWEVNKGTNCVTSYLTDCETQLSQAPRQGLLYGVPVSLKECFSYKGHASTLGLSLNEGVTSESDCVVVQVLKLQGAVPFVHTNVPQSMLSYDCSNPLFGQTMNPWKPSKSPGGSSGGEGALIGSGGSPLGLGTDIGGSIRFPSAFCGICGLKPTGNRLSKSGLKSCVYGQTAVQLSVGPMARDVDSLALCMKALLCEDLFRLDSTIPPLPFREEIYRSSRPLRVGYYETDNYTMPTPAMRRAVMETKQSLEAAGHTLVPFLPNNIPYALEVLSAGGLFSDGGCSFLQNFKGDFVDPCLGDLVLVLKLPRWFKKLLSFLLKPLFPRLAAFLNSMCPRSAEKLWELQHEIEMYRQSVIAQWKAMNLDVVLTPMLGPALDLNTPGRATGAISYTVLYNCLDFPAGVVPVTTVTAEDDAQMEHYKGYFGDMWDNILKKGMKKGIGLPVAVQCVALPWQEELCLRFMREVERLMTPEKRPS
Experimental: Tests comprised measuring the activity, in vitro, of the compounds of the invention on the FAAH enzyme.
The inhibitory activity was measured in a radioenzymatic assay based on measuring the product of hydrolysis (ethanolamine [1-3H]) of anandamide by FAAH (Life Science (1995), 56, 1999-2005 and Journal of Pharmacology and Experimented Therapeutics (1997), 283, 729-734). The products of hydrolysis of [^3H]anandamide, labeled on ethanolamine, are arachidonic acid and [^3H]ethanolamine and the source of FAAH enzyme is a mouse brain homogenate from which the cerebellum and the medulla oblongata have been removed. The mouse brains are removed, and stored at −80° C. until they are used or homogenized immediately for twice 5 seconds using a Precellys apparatus at 5000 rpm (Bertin) in a 10 mM Tris-HCl, 150 mM NaCl, 1 mM EDTA buffer (pH 8) at 4° C. The concentration of the homogenates is then adjusted to 20 μg/μl.
(§1) The dilution series of the compounds is prepared from stock solutions at 20 mM in 100% DMSO. […]
(§2) Assaying of the FAAH activity is carried out in a 96-well microplate in a final reaction volume of 70 μl. […] After stirring for 10 minutes, the microplate is centrifuged for 15 minutes at 4000 g and a 30 μl aliquot of the aqueous phase containing the [^3H]ethanolamine produced is removed and then counted for 5 minutes by liquid scintillation (Wallac 1450 Microbeta).

[2] = target: T2, MGL (monoacyl glycerol lipase) enzyme (Mus musculus, UniProt O35678); test: radioenzymatic assay of [3H] 2-OG hydrolysis by MGL; format: biochemical; details: mouse brain homogenate; 20 min preincubation; 50 μM 2-OG; read-out: IC50 (concentration inhibiting 50% of the control enzyme activity of MGL)
T2 construct: the source of MGL enzyme is a mouse brain homogenate from which the cerebellum and the medulla oblongata have been removed; from tissue; host or cells: mouse brain homogenate (cerebellum and medulla oblongata removed)
T2 sequence (O35678 1-303): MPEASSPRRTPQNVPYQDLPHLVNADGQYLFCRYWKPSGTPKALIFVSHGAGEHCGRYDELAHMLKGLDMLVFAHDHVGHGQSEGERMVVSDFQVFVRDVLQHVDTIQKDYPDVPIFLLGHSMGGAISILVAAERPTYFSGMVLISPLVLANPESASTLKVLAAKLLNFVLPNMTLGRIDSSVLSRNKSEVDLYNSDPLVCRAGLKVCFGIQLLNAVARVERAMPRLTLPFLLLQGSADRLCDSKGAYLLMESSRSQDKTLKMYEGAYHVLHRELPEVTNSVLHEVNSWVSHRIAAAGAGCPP
Experimental: Tests comprised measuring the activity, in vitro, of the compounds of the invention on the MGL enzyme.
The inhibitory activity was measured in a radioenzymatic assay based on measuring the product of hydrolysis of 2-oleoyl glycerol ([^3H] 2-OG) by MGL. The products of hydrolysis of [^3H] 2-OG, labeled on the glycerol, are oleic acid and [^3H]glycerol, and the source of MGL enzyme is a mouse brain homogenate from which the cerebellum and the medulla oblongata have been removed. The mouse brains are removed, and stored at −80° C. until they are used or homogenized immediately for twice 5 seconds using a Precellys apparatus at 5000 rpm (Bertin) in a 10 mM Tris-HCl, 150 mM NaCl, 1 mM EDTA buffer (pH 8) at 4° C. The concentration of the homogenates is then adjusted to 7.5 μg/μl.
as §1
as §2, with “MGL” for “FAAH”, “100” for “70”, “[^3H]glycerol” for “[^3H]ethanolamine”, “Microbeta). […]” for “Microbeta).”

SMILES	melting point [°C]	IC50 [1] [nM]	IC50 [2] [nM]
COc1ccc(N2CCN(C(=O)n3nnc4ccc(N5CCCC5)nc43)CC2)cc1 [Compound No. 2, [4-(4-Methoxyphenyl)piperazin-1-yl](5-pyrrolidin-1-yl[1,2,3]triazolo[4,5-b]-pyridin-3-yl)methanone]	138 to 140		
O=C(N1CCN(c2cccc(C(F)(F)F)c2)CC1)n1nnc2ccc(N3CCOCC3)nc21 [compound 1, (5-morpholin-4-yl[1,2,3]triazolo[4,5-b]pyridin-3-yl)[4-(3-trifluoromethylphenyl)piperazin-1-yl]methanone]	172 to 174	10	4
O=C(N1CCN(c2cccc(C(F)(F)F)c2)CC1)n1nnc2ccc(N3CCCC3)nc21 [compound 3, (5-pyrrolidin-1-yl[1,2,3]triazolo[4,5-b]pyridin-3-yl)[4-(3-trifluoromethylphenyl)piperazin-1-yl]methanone]	158 to 160		
O=C(N1CCN(c2ccc(C(F)(F)F)cc2)CC1)n1nnc2ccc(N3CCC(F)(F)C3)nc21 [compound 4, [5-(3,3-difluoropyrrolidin-1-yl)[1,2,3]triazolo[4,5-b]pyridin-3-yl)[4-(4-trifluoromethylphenyl)piperazin-1-yl]methanone]	141 to 143		
